Read-outs that look alike come from different tables or passages of the source.
Legend:
[1] = target: T1, human cytochrome P450 51 (hCYP51) (Homo sapiens, UniProt Q16850); test: enzymatic assay, [[…]-3H]lanosterol conversion by purified hCYP51/CPR, radio-HPLC; format: biochemical
T1 sequence (Q16850 1-509): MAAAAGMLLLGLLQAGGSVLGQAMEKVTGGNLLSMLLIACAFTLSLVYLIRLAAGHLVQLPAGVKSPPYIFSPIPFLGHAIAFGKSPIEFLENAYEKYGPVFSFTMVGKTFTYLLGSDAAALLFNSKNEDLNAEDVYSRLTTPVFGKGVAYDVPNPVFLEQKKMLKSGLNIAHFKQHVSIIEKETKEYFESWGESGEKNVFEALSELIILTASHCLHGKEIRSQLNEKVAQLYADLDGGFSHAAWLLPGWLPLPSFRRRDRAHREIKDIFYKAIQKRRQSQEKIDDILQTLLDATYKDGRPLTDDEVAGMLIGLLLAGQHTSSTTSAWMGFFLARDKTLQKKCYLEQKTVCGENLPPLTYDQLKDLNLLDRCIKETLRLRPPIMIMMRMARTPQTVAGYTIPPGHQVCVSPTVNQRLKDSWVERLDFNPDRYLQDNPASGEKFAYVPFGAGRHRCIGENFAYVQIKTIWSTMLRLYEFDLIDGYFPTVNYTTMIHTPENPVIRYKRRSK

[2] = target: T1, human cytochrome P450 51 (hCYP51); test: as above; format: biochemical; remark: listed apart in the source

Compound | IC50 [1] | IC50 [2]
C[C@@H](c1nc(-c2ccc(C#N)cc2)cs1)[C@](O)(Cn1cncn1)c1cc(F)ccc1F [ICZ, isavuconazole] | 50.5 µM | 
CC[C@@H]([C@H](C)O)n1ncn(-c2ccc(N3CCN(c4ccc(OC[C@@H]5CO[C@@](Cn6cncn6)(c6ccc(F)cc6F)C5)cc4)CC3)cc2)c1=O [PCZ, posaconazole] |  | 8.3 µM
